For the test, the target named is T1, βARR1 coupling to pβ2V2R (Rattus norvegicus, UniProt P29066).
T1 construct: βARR1 or βARR2 construct, with their C terminus truncated (at amino acid 393 or 394, respectively); GST (pGEX4T1) (N, cleaved yes); made in house; host or cells: βARR1: E. coli BL21 (DE3) pLysS; receptor: Sf9 membranes, co-expressed with GRK2–CAAX
Kind of test: [3H]-Fen high-affinity agonist binding promoted by βARR1 at pβ2V2R. The conditions noted are these: βARR1 2 μM, [3H]-Fen 6 nM, read-out: inhibition of βARR1-mediated stabilization of the high-affinity β2V2R state. In kind it is biochemical. The procedure:
The N-terminal Flag-tagged T4 lysozyme fusion-β2V2R construct (β2AR residues 1–341 fused to V2R residues 328–372), bearing a TEV cleavage site, was co-expressed with GRK2–CAAX (membrane-anchored GRK2) or wild-type β2AR in Sf9 insect cells using the Baculovirus Expression System, as described previously[44],[62],[63],[68],[69]. At 66 h after infection, cells expressing T4L–β2V2R were stimulated with 20 μM isoproterenol for 20 min at 37 °C to induce receptor phosphorylation (pβ2V2R), while β2AR-expressing cells remained untreated. All cells were washed extensively to remove residual agonist. For membrane preparation from these cells, briefly, cells were resuspended in cold homogenization buffer (75 mM Tris-HCl, pH 7.4, 2 mM EDTA, and cOmplete protease inhibitor) and collected by centrifugation at 500g for 5 min at 4 °C. […]
To assess the effects of β-arrestin modulators on β-arrestin- or Gαs–βγ-promoted high-affinity agonist binding, [^3H]-Fen binding assays were performed using membranes from Sf9 cells expressing phosphorylated β2V2R (pβ2V2R) or β2AR[28]. […] Bound [^3H]-Fen was extracted overnight in scintillation fluid and quantified by scintillation counting. Specific binding was calculated by subtracting nonspecific from total binding.

T1 sequence (P29066 1-393): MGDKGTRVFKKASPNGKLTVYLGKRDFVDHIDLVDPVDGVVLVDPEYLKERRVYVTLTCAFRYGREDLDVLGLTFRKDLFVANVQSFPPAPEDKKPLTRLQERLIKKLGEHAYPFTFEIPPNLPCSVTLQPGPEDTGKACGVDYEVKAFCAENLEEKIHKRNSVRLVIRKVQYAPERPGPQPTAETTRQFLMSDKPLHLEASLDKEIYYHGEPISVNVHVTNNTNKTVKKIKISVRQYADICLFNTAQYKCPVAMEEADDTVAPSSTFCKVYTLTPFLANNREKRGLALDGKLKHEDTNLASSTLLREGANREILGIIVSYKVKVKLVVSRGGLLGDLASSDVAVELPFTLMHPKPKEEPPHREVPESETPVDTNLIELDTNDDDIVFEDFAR

A word on the inhibition: it is the change of the read-out against control, counted positive when it falls. For `C=C1C(=O)[C@]23[C@H](O)[C@H]1CC[C@H]2[C@@]12CO[C@]3(O)[C@@H](O)[C@@H]1C(C)(C)CC[C@@H]2O` [Cmpd-5, (1S,4aR,5S,6S,6aR,9S,11aS,11bS,14R)-1,5,6,14-tetrahydroxy−4,4-dimethyl-8-methylenedecahydro-1H-6,11b-(epoxymethano)-6a,9-methanocyclohepta[a]naphthalen-7(8H)-one], the inhibition at 100 µM was about 40%.
